Data set [1] addresses 5-hydroxytryptamine receptor 1B (Rattus norvegicus, UniProt P28564). Type of data set: cell membranes, Wistar, Cerebral cortex, Membrane.
The target in another data set is Melanocortin receptor 4 (Homo sapiens, UniProt P32245). It is filed as cell membranes, Membrane. Conditions: hek293. Note: in other assays of this panel Not Active means under 50% inhibition at 10 µM.
In a further data set the target is Cytochrome P450 2D6 (Homo sapiens, UniProt P10635). The conditions noted are these: bti-tn-5b1-4. Note: in other assays of this panel Not Active means under 50% inhibition at 10 µM.
Sequence of Cytochrome P450 2D6 (P10635 whole entry): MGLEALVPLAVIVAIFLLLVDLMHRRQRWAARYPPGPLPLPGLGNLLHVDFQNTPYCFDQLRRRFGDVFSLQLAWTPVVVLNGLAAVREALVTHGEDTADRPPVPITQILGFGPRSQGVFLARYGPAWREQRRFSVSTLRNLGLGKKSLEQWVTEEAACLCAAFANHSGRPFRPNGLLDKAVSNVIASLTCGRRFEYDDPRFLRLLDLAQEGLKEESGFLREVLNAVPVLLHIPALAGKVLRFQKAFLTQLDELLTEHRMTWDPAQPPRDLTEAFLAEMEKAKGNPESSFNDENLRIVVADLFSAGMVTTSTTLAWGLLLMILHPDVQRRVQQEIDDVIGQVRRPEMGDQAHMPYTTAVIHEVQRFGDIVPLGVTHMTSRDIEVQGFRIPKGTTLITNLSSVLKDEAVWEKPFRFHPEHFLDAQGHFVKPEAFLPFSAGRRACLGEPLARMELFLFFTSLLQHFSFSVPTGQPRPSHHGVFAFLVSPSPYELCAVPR
The target in data set [2] is T1, Neuropeptide Y receptor type 2 (Homo sapiens, UniProt P49146). Note: in other assays of this panel Not Active means under 50% inhibition at 10 µM.
T1 sequence (P49146 whole entry): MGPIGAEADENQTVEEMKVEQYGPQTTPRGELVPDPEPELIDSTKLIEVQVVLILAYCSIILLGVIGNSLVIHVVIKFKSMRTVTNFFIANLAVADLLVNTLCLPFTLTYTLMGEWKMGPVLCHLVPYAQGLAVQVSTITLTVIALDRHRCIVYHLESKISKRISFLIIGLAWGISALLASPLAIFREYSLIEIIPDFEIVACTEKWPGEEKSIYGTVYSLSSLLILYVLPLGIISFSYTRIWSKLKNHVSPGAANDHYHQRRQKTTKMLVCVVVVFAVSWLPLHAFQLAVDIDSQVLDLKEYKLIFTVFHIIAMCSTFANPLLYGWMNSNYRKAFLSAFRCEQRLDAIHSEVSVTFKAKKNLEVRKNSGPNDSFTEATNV
Type of data set: cell membranes, Membrane. The conditions noted are these: kan-ts.

For data set [3], the target named is T2, Amine oxidase [flavin-containing] A (Homo sapiens, UniProt P21397).
T2 sequence (P21397 whole entry): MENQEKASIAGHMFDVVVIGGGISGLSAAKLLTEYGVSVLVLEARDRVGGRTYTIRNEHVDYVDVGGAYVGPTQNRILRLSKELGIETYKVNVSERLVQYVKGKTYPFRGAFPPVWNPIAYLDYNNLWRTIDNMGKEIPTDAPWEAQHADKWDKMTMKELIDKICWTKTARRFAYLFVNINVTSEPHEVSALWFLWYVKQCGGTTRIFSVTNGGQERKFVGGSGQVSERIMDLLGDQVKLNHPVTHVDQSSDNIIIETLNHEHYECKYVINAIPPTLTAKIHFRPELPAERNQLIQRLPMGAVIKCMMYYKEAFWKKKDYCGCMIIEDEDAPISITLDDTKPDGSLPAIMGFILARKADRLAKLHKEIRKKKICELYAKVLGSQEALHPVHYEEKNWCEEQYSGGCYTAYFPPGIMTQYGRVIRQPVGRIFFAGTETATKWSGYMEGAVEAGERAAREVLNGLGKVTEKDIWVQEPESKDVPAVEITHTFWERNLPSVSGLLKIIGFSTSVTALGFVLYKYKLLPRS
The experiment in a line: DRUGMATRIX: Monoamine Oxidase MAO-A enzyme inhibition (substrate: Kynuramine). Details: species or system BTI-TN-5B1-4. The conditions noted are these: Not Active = under 50% inhibition at 10 µM.

A further data set has as its target Cytochrome P450 2C19 (Homo sapiens, UniProt P33261). The conditions noted are these: bti-tn-5b1-4. Note: in other assays of this panel Not Active means under 50% inhibition at 10 µM.
Data set [4] deals with T3, Neuropeptide Y receptor type 1 (Homo sapiens, UniProt P25929).
T3 sequence (P25929 whole entry): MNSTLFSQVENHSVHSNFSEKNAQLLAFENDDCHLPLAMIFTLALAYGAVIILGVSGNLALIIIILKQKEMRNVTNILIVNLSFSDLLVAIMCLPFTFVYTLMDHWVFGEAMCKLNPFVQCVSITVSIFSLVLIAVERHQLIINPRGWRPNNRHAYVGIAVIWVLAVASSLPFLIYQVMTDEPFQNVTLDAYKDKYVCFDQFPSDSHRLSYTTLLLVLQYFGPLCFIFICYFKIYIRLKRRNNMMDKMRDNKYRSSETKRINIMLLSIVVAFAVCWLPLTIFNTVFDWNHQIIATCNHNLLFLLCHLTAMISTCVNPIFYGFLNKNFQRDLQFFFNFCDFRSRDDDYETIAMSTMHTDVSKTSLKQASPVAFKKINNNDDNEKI
Type of data set: cell membranes, Membrane. The conditions noted are these: sk-n-mc.

Usually IC50 stands for the midpoint of a concentration-inhibition curve.

Sequence of Cytochrome P450 2C19 (P33261 whole entry): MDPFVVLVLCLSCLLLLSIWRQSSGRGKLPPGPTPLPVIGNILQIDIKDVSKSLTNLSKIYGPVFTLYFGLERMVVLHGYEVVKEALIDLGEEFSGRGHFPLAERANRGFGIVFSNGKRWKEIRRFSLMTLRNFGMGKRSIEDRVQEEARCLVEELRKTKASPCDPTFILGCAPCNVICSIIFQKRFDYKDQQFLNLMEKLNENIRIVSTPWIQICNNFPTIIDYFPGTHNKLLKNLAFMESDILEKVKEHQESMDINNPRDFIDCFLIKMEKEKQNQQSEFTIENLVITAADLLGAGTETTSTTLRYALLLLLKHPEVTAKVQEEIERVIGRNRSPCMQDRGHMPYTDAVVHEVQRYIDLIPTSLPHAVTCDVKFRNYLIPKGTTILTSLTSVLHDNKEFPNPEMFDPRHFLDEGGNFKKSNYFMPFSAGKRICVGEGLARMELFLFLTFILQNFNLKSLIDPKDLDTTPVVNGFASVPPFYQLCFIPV
Sequence of Melanocortin receptor 4 (P32245 whole entry): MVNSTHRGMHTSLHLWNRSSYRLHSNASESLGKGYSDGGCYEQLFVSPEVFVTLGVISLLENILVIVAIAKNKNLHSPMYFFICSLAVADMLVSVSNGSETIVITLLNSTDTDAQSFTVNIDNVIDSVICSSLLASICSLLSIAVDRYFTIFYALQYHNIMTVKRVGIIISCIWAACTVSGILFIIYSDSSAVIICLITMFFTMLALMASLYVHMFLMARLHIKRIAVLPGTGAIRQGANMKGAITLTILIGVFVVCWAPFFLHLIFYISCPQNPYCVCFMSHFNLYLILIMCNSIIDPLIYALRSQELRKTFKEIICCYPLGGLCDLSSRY
Sequence of 5-hydroxytryptamine receptor 1B (P28564 whole entry): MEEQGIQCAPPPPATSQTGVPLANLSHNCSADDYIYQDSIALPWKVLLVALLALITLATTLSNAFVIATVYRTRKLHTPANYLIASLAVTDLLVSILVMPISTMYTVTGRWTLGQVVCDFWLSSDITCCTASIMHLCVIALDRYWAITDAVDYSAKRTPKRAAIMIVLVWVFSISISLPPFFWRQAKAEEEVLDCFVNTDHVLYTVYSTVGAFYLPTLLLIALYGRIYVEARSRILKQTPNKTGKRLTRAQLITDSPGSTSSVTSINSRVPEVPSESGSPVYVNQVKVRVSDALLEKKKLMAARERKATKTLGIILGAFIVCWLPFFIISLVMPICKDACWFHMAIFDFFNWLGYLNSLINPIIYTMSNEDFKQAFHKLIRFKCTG

In the case of `C#C[C@]1(O)CC[C@H]2[C@@H]3CCc4cc(O)ccc4[C@H]3CC[C@@]21C` [ETHINYL ESTRADIOL], the half-maximal inhibitory concentration (IC50) entry (in data set [1]; against Melanocortin receptor 4; at Cytochrome P450 2D6; in data set [2]; in data set [3] (bti-tn-5b1-4); on Cytochrome P450 2C19) was “Not Active” in each case. Also, in data set [4], the IC50 result is “Not Active”. Besides, the Ki entry at Cytochrome P450 2D6 and on Cytochrome P450 2C19 was “Not Active” throughout.

Consider `OCCO` [ETHYLENE GLYCOL], for which the IC50 entry (in data set [1]; against Melanocortin receptor 4; at Cytochrome P450 2D6; in data set [2]; in data set [3] (bti-tn-5b1-4); at Cytochrome P450 2C19) was “Not Active” throughout. The IC50 result in data set [4] is reported as “Not Active”. The Ki result on Cytochrome P450 2D6 and at Cytochrome P450 2C19 was “Not Active” each time.

For the compound `CC(=O)OCC(CCn1cnc2cnc(N)nc21)COC(C)=O` [FAMCICLOVIR], the half-maximal inhibitory concentration (IC50) entry (in data set [1]; against Melanocortin receptor 4; on Cytochrome P450 2D6; in data set [2]; in data set [3] (bti-tn-5b1-4); against Cytochrome P450 2C19) was “Not Active” throughout. For the same compound, the IC50 entry in data set [4] was “Not Active”. Besides, the Ki entry on Cytochrome P450 2D6 and on Cytochrome P450 2C19 was “Not Active” throughout.

In the case of `CC(C(=O)O)c1ccc(-c2ccccc2)c(F)c1` (stereo not drawn) [FLURBIPROFEN], the IC50 entry (in data set [1]; on Melanocortin receptor 4; against Cytochrome P450 2D6; in data set [2]; in data set [3] (bti-tn-5b1-4); against Cytochrome P450 2C19) was “Not Active” each time. The IC50 entry in data set [4] is given as “Not Active”. Also, the Ki entry at Cytochrome P450 2D6 and at Cytochrome P450 2C19 was “Not Active” in each case.

`NC[C@@H]1O[C@H](O[C@H]2[C@@H](O)[C@H](O[C@@H]3[C@@H](O)[C@H](N)C[C@H](N)[C@H]3O[C@H]3O[C@H](CN)[C@@H](O)[C@H](O)[C@H]3N)O[C@@H]2CO)[C@H](N)[C@@H](O)[C@@H]1O` [FRAMYCETIN]: the IC50 entry (in data set [1]; against Melanocortin receptor 4; against Cytochrome P450 2D6; in data set [2]; in data set [3] (bti-tn-5b1-4); at Cytochrome P450 2C19) was “Not Active” each time. The IC50 result in data set [4] was “Not Active”. For the same compound, the Ki entry on Cytochrome P450 2D6 and on Cytochrome P450 2C19 was “Not Active” throughout.

For the compound `C[C@H]([C@](O)(Cn1cncn1)c1ccc(F)cc1F)S(C)(=O)=O` [GENACONAZOLE], the IC50 entry (in data set [1]; at Melanocortin receptor 4; against Cytochrome P450 2D6; in data set [2]; in data set [3] (bti-tn-5b1-4); against Cytochrome P450 2C19) was “Not Active” in each case. For the same compound, the IC50 result in data set [4] is on record as “Not Active”. The Ki result at Cytochrome P450 2D6 and at Cytochrome P450 2C19 was “Not Active” in each case.

For the compound `Cc1c(F)c(N2CCNC(C)C2)cc2c1c(=O)c(C(=O)O)cn2C1CC1` (stereo not drawn) [GREPAFLOXACIN], the IC50 result (in data set [1]; against Melanocortin receptor 4; at Cytochrome P450 2D6; in data set [2]; in data set [3] (bti-tn-5b1-4); against Cytochrome P450 2C19) was “Not Active” each time. For the same compound, the IC50 result in data set [4] is given as “Not Active”. For the same compound, the Ki entry on Cytochrome P450 2D6 and on Cytochrome P450 2C19 was “Not Active” throughout.

With `N=C(N)N/N=C/c1c(Cl)cccc1Cl` [GUANABENZ], the IC50 result in data set [1] was “Not Active”; on Melanocortin receptor 4 it was “Not Active”; against Cytochrome P450 2D6 it was “Not Active”; in data set [2] it was “Not Active”; in data set [3] (read-out: IC50), 1790 nM; on Cytochrome P450 2C19, “Not Active”. For the same compound, the IC50 entry in data set [4] is “Not Active”. Further, the Ki result on Cytochrome P450 2D6 and on Cytochrome P450 2C19 was “Not Active” throughout.

With `C[C@]12CCC(=O)C=C1CC[C@@H]1[C@@H]2[C@@H](O)C[C@@]2(C)[C@H]1CC[C@]2(O)C(=O)CO` [HYDROCORTISONE], the IC50 result (in data set [1]; on Melanocortin receptor 4; on Cytochrome P450 2D6; in data set [2]; in data set [3] (bti-tn-5b1-4); at Cytochrome P450 2C19) was “Not Active” in each case. Further, in data set [4], the half-inhibitory concentration (IC50) entry is “Not Active”. Further, the Ki result at Cytochrome P450 2D6 and at Cytochrome P450 2C19 was “Not Active” in each case.

Take `NC[C@H]1O[C@H](O[C@H]2[C@H](O)[C@@H](O[C@H]3O[C@H](CO)[C@@H](O)[C@H](N)[C@H]3O)[C@H](N)C[C@@H]2N)[C@H](O)[C@@H](O)[C@@H]1O` [KANAMYCIN]: the concentration for half-maximal inhibition (IC50) result (in data set [1]; against Melanocortin receptor 4; at Cytochrome P450 2D6; in data set [2]; in data set [3] (bti-tn-5b1-4); against Cytochrome P450 2C19) was “Not Active” in each case. Moreover, the half-inhibitory concentration (IC50) result in data set [4] is on record as “Not Active”. In addition, the Ki entry on Cytochrome P450 2D6 and at Cytochrome P450 2C19 was “Not Active” in each case.

Consider `CC(C(=O)O)c1ccc(CC2CCCC2=O)cc1` (stereo not drawn) [LOXOPROFEN], for which the 50% inhibitory concentration (IC50) entry (in data set [1]; against Melanocortin receptor 4; at Cytochrome P450 2D6; in data set [2]; in data set [3] (bti-tn-5b1-4); against Cytochrome P450 2C19) was “Not Active” throughout. Besides, the IC50 entry in data set [4] is “Not Active”. Moreover, the Ki entry on Cytochrome P450 2D6 and at Cytochrome P450 2C19 was “Not Active” in each case.

Consider `Cc1cccc(Nc2ccccc2C(=O)O)c1C` [MEFENAMIC ACID], for which the IC50 result (in data set [1]; against Melanocortin receptor 4; against Cytochrome P450 2D6; in data set [2]; in data set [3] (bti-tn-5b1-4); against Cytochrome P450 2C19) was “Not Active” throughout. Also, the IC50 result in data set [4] is on record as “Not Active”. The Ki entry at Cytochrome P450 2D6 and on Cytochrome P450 2C19 was “Not Active” each time.

In the case of `CC(=O)O[C@]1(C(C)=O)CC[C@H]2[C@@H]3C=C(C)C4=CC(=O)CC[C@]4(C)[C@H]3CC[C@@]21C` [MEGESTROL ACETATE], the IC50 result (in data set [1]; against Melanocortin receptor 4; at Cytochrome P450 2D6; in data set [2]; in data set [3] (bti-tn-5b1-4); on Cytochrome P450 2C19) was “Not Active” in each case. Moreover, the half-maximal inhibitory concentration (IC50) result in data set [4] is “Not Active”. Further, the Ki entry on Cytochrome P450 2D6 and at Cytochrome P450 2C19 was “Not Active” in each case.

In the case of `COc1ccccc1OCC(O)COC(N)=O` (stereo not drawn) [METHOCARBAMOL], the half-maximal inhibitory concentration (IC50) result (in data set [1]; against Melanocortin receptor 4; on Cytochrome P450 2D6; in data set [2]; in data set [3] (bti-tn-5b1-4); on Cytochrome P450 2C19) was “Not Active” each time. The IC50 result in data set [4] is “Not Active”. Moreover, the Ki entry at Cytochrome P450 2D6 and at Cytochrome P450 2C19 was “Not Active” each time.

Take `CN(Cc1cnc2nc(N)nc(N)c2n1)c1ccc(C(=O)N[C@@H](CCC(=O)O)C(=O)O)cc1` [METHOTREXATE]: the 50% inhibitory concentration (IC50) result (in data set [1]; on Melanocortin receptor 4; against Cytochrome P450 2D6; in data set [2]; in data set [3] (bti-tn-5b1-4); against Cytochrome P450 2C19) was “Not Active” each time. In addition, in data set [4], the IC50 result was “Not Active”. For the same compound, the Ki result on Cytochrome P450 2D6 and at Cytochrome P450 2C19 was “Not Active” throughout.

With `COC(=O)c1ccccc1O` [METHYL SALICYLATE], the 50% inhibitory concentration (IC50) result (in data set [1]; at Melanocortin receptor 4; at Cytochrome P450 2D6; in data set [2]; in data set [3] (bti-tn-5b1-4); against Cytochrome P450 2C19) was “Not Active” each time. Moreover, in data set [4], the IC50 entry is recorded as “Not Active”. The Ki entry at Cytochrome P450 2D6 and on Cytochrome P450 2C19 was “Not Active” in each case.

Take `O=C(O)c1cccnc1` [NIACIN]: the IC50 entry (in data set [1]; against Melanocortin receptor 4; at Cytochrome P450 2D6; in data set [2]; in data set [3] (bti-tn-5b1-4); on Cytochrome P450 2C19) was “Not Active” each time. Moreover, the IC50 result in data set [4] is “Not Active”. Moreover, the Ki result on Cytochrome P450 2D6 and on Cytochrome P450 2C19 was “Not Active” each time.

Source of the values: ChEMBL document CHEMBL1909046, “DrugMatrix in vitro pharmacology data”.
